Results reported in patent publication US20240246920A1, “TRIAZOLE DERIVATIVES WITH ANTIFUNGAL ACTIVITY” (King's College London, priority 2020, published 2024).
Values after ≈ are worked out from the molar mass of the structure shown.

What was measured:
C. albicans NCPF3281 = assay: Candida panel MIC, serial dilution in 96-well plates; assay type: cell-based, Candida albicans; details: Candida albicans, NCPF3281; Table 4, common panel; 24 hours, ≥50% inhibition; read-out: MIC C. albicans NCPF3281
Experimental: (§1) The minimum inhibitory concentration of test compounds were determined in a panel of Candida species (see Table 4 below), using the a serial dilution method in 96-well plates using the following protocol.
(§2) Starter cultures of fungal strains to be tested were grown in 3 mL of RPMI 2% glucose media incubated at 37° C. with shaking at 200 rpm overnight. The culture media used was 900 mL H2O; 10.4 g RPMI 1640 (with L-glutamine and a pH indicator but without bicarbonate); 34.5 g MOPS and 18 g glucose. The pH of the media was adjusted to 7.0 with 1 M sodium hydroxide.
(§3) Solutions of the compound to be tested were prepared by dissolving the compound in DMSO and subsequently into media to the desired concentrations. 200 μL of compound solution was then added to the wells of the 96-well plate using a serial dilution method row-by row of the plate to give a compound concentration gradient across the plate of from 128 μg/mL to 0.25 μg/mL. The last two rows of each plate were control rows containing the culture media alone and the media plus fungi.
(§4) The fungi starter cultures were diluted 1:10 in water in cuvettes. This was then further diluted to an optical density (OD600) of 0.01 in media. 100 μL of the fungi was added to each well giving a starting concentration of fungus of 0.5-5×10^5/mL. One species of fungus was used on each plate. The plates were then held at 37° C. for 24 hours.
(§5) A plate reader was used to measure growth in each well at OD530 nm and the MIC was determined for each test compound. The MIC is defined as the lowest concentration giving rise to inhibition of ≥50% of that of the drug-free control well containing the fungus and media.

C. glabrata NCPF8018 = assay: as above; assay type: cell-based, Candida glabrata; details: Nakaseomyces glabratus, NCPF8018; Table 4, common panel; 24 hours, ≥50% inhibition; read-out: MIC C. glabrata NCPF8018
Experimental: as §1, §2
(§6) Solutions of the compound to be tested were prepared by dissolving the compound in DMSO and subsequently into media to the desired concentrations. […] The last two rows of each plate were control rows containing the culture media alone and the media plus fungi.
as §4, §5

C. krusei NCPF3876 = assay: microbe, parasite or virus in culture; assay type: cell-based, Candida krusei; details: Pichia kudriavzevii, NCPF3876; Table 4, common panel; 24 hours, ≥50% inhibition; read-out: MIC C. krusei NCPF3876
Experimental: as §1, §2, §6, §4, §5

C. parapsilosis NCPF3209 = assay: microbe, parasite or virus in culture; assay type: cell-based, Candida parapsilosis; details: Lodderomyces parapsilosis, NCPF3209; Table 4, common panel; 24 hours, ≥50% inhibition; read-out: MIC C. parapsilosis NCPF3209
Experimental: as §1, §2, §6, §4, §5

Candida auris TDG2211 = assay: microbe, parasite or virus in culture; assay type: cell-based; details: Candidozyma auris, TDG2211; Table 4, extended panel; 24 hours, ≥50% inhibition; read-out: MIC Candida auris TDG2211
Experimental: as §1, §2, §6, §4, §5
(§7) The Candida auris strains shown in Table 7 were either taken from the National Collection of Pathogenic Fungi (NCPF) or collected as part of ongoing surveillance studies. The strains were characterised as follows.

Candida auris TDG2506 = assay: microbe, parasite or virus in culture; assay type: cell-based; details: Candidozyma auris, TDG2506; Table 4, extended panel; 24 hours, ≥50% inhibition; read-out: MIC Candida auris TDG2506
Experimental: as §1, §2, §6, §4, §5, §7

C. auris TDG1912 = assay: Candida panel MIC, serial dilution in 96-well plates; assay type: cell-based; details: Candidozyma auris, TDG1912; Table 4; 24 hours, ≥50% inhibition; read-out: MIC C. auris TDG1912
Experimental: as §1, §2, §3, §4, §5

C. tropicalis NCPF8760 = assay: as above; assay type: cell-based; details: NCPF8760, Table 4, common panel, 24 hours, ≥50% inhibition, read-out: MIC C. tropicalis NCPF8760
Experimental: as §1, §2, §3, §4, §5

Candida auris TDG1102 = assay: as above; assay type: cell-based; details: Candidozyma auris, TDG1102; Table 4, extended panel; 24 hours, ≥50% inhibition; read-out: MIC Candida auris TDG1102
Experimental: as §1, §2, §3, §4, §5

Candida auris TDG2512 = assay: as above; assay type: cell-based; details: Candidozyma auris, TDG2512; Table 4, extended panel; 24 hours, ≥50% inhibition; read-out: MIC Candida auris TDG2512
Experimental: as §1, §2, §3, §4, §5

C. auris 8971 = assay: as above; assay type: cell-based, Candida auris; details: Candidozyma auris, 8971; Table 4, extended panel; 24 hours, ≥50% inhibition; read-out: MIC C. auris 8971
Experimental: as §1, §2, §6, §4, §5, §7

C. auris 8977 = assay: as above; assay type: cell-based, Candida auris; details: Candidozyma auris, 8977; Table 4, extended panel; 24 hours, ≥50% inhibition; read-out: MIC C. auris 8977
Experimental: as §1, §2, §6, §4, §5, §7

C. auris 8984 = assay: as above; assay type: cell-based, Candida auris; details: Candidozyma auris, 8984; Table 4, extended panel; 24 hours, ≥50% inhibition; read-out: MIC C. auris 8984
Experimental: as §1, §2, §6, §4, §5, §7

SMILES	MIC (C. albicans NCPF3281) [µg/mL]	MIC (C. glabrata NCPF8018) [µg/mL]	MIC (C. krusei NCPF3876) [µg/mL]	MIC (C. parapsilosis NCPF3209) [µg/mL]	MIC (Candida auris TDG2211) [µg/mL]	MIC (Candida auris TDG2506) [µg/mL]	MIC (C. auris TDG1912) [µg/mL]	MIC (C. tropicalis NCPF8760) [µg/mL]	MIC (Candida auris TDG1102) [µg/mL]	MIC (Candida auris TDG2512) [µg/mL]	MIC (C. auris 8971) [µg/mL]	MIC (C. auris 8977) [µg/mL]	MIC (C. auris 8984) [µg/mL]
COCCOc1ccc(NC2CCN(CC(O)(Cn3cncn3)c3ccc(F)cc3F)CC2)cc1 (centres unmarked) [Example 96]	0.0078 to 0.0156 (≈ 0.016 to 0.032 µM)	4 (≈ 8.2 µM)	0.5 (≈ 1.03 µM)	0.0156 (≈ 0.032 µM)	0.0156 to 0.06 (≈ 0.032 to 0.123 µM)	0.06 (≈ 0.123 µM)	0.125 (≈ 0.256 µM)	1 (≈ 2.05 µM)	0.06 (≈ 0.123 µM)	4 (≈ 8.2 µM)	0.06 (≈ 0.123 µM)	0.06 (≈ 0.123 µM)	0.25 (≈ 0.513 µM)
CN1CCC(Oc2ccc(NC3CCN(CC(O)(Cn4cncn4)c4ccc(F)cc4F)CC3)cc2)CC1 (centres unmarked) [Example 98]	0.125 (≈ 0.237 µM)	8 (≈ 15.2 µM)	8 (≈ 15.2 µM)	0.125 (≈ 0.237 µM)	> 8	> 8	> 8	> 8	> 8	2 (≈ 3.8 µM)	8 (≈ 15.2 µM)	8 (≈ 15.2 µM)	> 8
Cc1ccc(-c2ccc(NC3C[C@@H]4CN(CC(O)(Cn5cncn5)c5ccc(F)cc5F)C[C@@H]4C3)cc2)cc1F (some centres unmarked) [Example 99]	≤ 0.03	8 (≈ 14.6 µM)	1 (≈ 1.83 µM)	≤ 0.03	0.125 to 16 (≈ 0.228 to 29.2 µM)	32 (≈ 58.4 µM)	16 (≈ 29.2 µM)	> 32	16 to 32 (≈ 29.2 to 58.4 µM)	0.5 (≈ 0.913 µM)	1 to 4 (≈ 1.83 to 7.3 µM)	1 to 4 (≈ 1.83 to 7.3 µM)	32 (≈ 58.4 µM)
OC(CN1C[C@H]2CC(Nc3ccc(N4CCCCC4)cc3)C[C@H]2C1)(Cn1cncn1)c1ccc(F)cc1F (some centres unmarked) [Example 100]	≤ 0.03	2 (≈ 3.83 µM)	2 (≈ 3.83 µM)	≤ 0.03	2 (≈ 3.83 µM)	4 (≈ 7.65 µM)	8 (≈ 15.3 µM)	8 (≈ 15.3 µM)	16 (≈ 30.6 µM)	0.25 (≈ 0.478 µM)	1 (≈ 1.91 µM)	2 (≈ 3.83 µM)	4 (≈ 7.65 µM)
OC(CN1C[C@H]2CC(Nc3ccc(F)cc3)C[C@H]2C1)(Cn1cncn1)c1ccc(F)cc1F (some centres unmarked) [Example 101]	≤ 0.03	0.5 (≈ 1.09 µM)	1 (≈ 2.19 µM)	≤ 0.03	0.125 to 2 (≈ 0.273 to 4.37 µM)	4 (≈ 8.74 µM)	1 (≈ 2.19 µM)	4 (≈ 8.74 µM)	2 (≈ 4.37 µM)	0.125 (≈ 0.273 µM)	0.25 (≈ 0.546 µM)	0.25 (≈ 0.546 µM)	4 (≈ 8.74 µM)
